# Test results published in patent US20230382894A1, “CCR4 ANTAGONISTS” (CHEMOCENTRYX, INC., priority 2022, published 2023).
# Target: T1, CCR4 (Homo sapiens, UniProt P51679)
# T1 construct: CEM Cells Endogenous Express CCR4; endogenous in cells; host or cells: CEM cells
# T1 sequence (P51679 1-360): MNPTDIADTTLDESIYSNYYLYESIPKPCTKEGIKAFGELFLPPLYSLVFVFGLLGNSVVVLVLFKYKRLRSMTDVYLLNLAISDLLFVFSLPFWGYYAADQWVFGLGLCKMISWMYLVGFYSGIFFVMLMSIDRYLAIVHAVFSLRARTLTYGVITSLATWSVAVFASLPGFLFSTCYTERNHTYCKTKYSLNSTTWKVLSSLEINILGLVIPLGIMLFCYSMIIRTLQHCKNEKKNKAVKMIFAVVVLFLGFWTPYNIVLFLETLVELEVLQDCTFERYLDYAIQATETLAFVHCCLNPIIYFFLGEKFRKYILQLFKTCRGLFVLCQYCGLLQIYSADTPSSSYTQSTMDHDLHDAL
# Test: CEM cell chemotaxis (migration) assay to CCL22 (MDC) in 100% Fetal Bovine Serum (FBS)
# Type: cell-based
# Conditions: CEM cells in 100% FBS with 1% HEPEs; recombinant human CCL22 0.1 nM; 37° C. 60 minutes
# Source text: CEM Cells Endogenous Express CCR4
# A chemotaxis assay can be used to determine the efficacy of potential receptor antagonists at blocking the migration mediated through chemokine receptors, such as CCR4. This assay is routinely performed using the ChemoTX® microchamber system with a 5 μm pore-sized polycarbonate membrane.
# FBS: CEM Cells are collected by centrifugation at 400×g at room temperature, then suspended at 5 million/ml in 100% Fetal Bovine Serum (FBS) with 1% HEPEs. The compound being tested is serially diluted from a maximum final concentration of 10 μM (or an equivalent volume of its solvent (DMSO)) and is then added to the cell/buffer mixture. Separately, recombinant human CCL22 (MDC) at its EC50 concentration (0.1 nM) is placed in the lower wells of the ChemoTX® plate. The 5-μm (pore size) polycarbonate membrane was placed onto the plate, and 20 μL of the cell/compound mixture is transferred onto each well of the membrane. The plates are incubated at 37° C. for 60 minutes, after which the polycarbonate membranes are removed and 5 μl of the DNA-intercalating dye CyQUANT (Invitrogen, Carlsbad, CA) is added to the lower wells. The amount of fluorescence, corresponding to the number of migrated cells, is measured using a Spectrafluor Plus plate reader (TECAN, San Jose, CA).
row,SMILES,IC50 [nM]
1,Cc1cc(Cl)ccc1[C@@H](C)Nc1nc(N2CCN(C(=O)[C@H]3CCC(=O)N3)CC2)ncc1Cl [Example 1.088],100 to 1000
2,Cc1cc(Cl)ccc1[C@@H](C)Nc1nc(N2CCN(C(=O)[C@H]3CCC(=O)N3)CC2)ncc1F [Example 1.089],100 to 1000
3,C[C@@H](Nc1nc(N2CC[C@H](NC(=O)[C@H]3CCC(=O)N3)[C@H](O)C2)ncc1F)c1ccc(Cl)cc1Cl [Example 1.091],> 1000
4,C[C@@H](Nc1cc(C(F)(F)F)nc(N2CCN(C(=O)[C@H]3CCC(=O)N3)CC2)n1)c1ccc(Cl)cc1Cl [Example 1.092],100 to 1000
5,C[C@@H](Nc1nc(N2CC[C@H](NC(=O)[C@H]3CCC(=O)N3)[C@@H](O)C2)ncc1Cl)c1ccc(Cl)cc1Cl [Example 1.093],100 to 1000
6,C[C@@H](Nc1nc(N2CCN(C(=O)[C@H]3CCC(=O)N3)CC2)ncc1C1CC1)c1ccc(Cl)cc1Cl [Example 1.098],100 to 1000
7,C[C@@H](Nc1nc(N2CCN(C(=O)[C@H]3CCC(=O)N3)CC2)ncc1OCC(F)(F)F)c1ccc(Cl)cc1Cl [Example 1.099],100 to 1000
8,C[C@@H](Nc1nc(N2CC[C@H](NC(=O)[C@H]3CCC(=O)N3)[C@@H](O)C2)ncc1F)c1ccc(Cl)cc1Cl [Example 1.100],> 1000
9,C[C@@H](Nc1nc(N2CC[C@H](NC(=O)[C@H]3CCC(=O)N3)[C@@H](F)C2)ncc1Cl)c1ccc(Cl)cc1Cl [Example 1.106],100 to 1000
10,C[C@@H](Nc1nc(N2CCN(C(=O)[C@H]3COC(=O)N3)CC2)ncc1Cl)c1ccc(Cl)cc1Cl [Example 1.122],< 100
11,C[C@@H](Nc1nc(N2CC[C@H](NC(=O)[C@H]3CCC(C)(C)N3)[C@@H](O)C2)ncc1Cl)c1ccc(Cl)cc1Cl [Example 1.123],< 100
12,C[C@@H](Nc1nc(N2CC[C@H](NC(=O)[C@H]3CCCCN3)[C@@H](O)C2)ncc1Cl)c1ccc(Cl)cc1Cl [Example 1.124],< 100
13,C[C@@H](Nc1nc(N2CC[C@H](NC(=O)[C@H]3COCCN3)[C@@H](O)C2)ncc1Cl)c1ccc(Cl)cc1Cl [Example 1.125],100 to 1000
14,C[C@@H](Nc1nc(N2CCN(C(=O)C(N)(CO)CCl)CC2)ncc1Cl)c1ccc(Cl)cc1Cl (some centres unmarked) [Example 1.126],100 to 1000
15,C[C@@H](Nc1nc(N2CCC(C3CCCN(CCC(N)=O)C3)CC2)ncc1Cl)c1ccc(Cl)cc1Cl (some centres unmarked) [Example 1.127],< 100
16,C[C@@H](Nc1nc(N2CCN(C(=O)[C@@H]3COCCN3)CC2)ncc1Cl)c1ccc(Cl)cc1Cl [Example 1.128],100 to 1000
17,C[C@@H](Nc1nc(N2CCN(C(=O)[C@H]3CNCC(=O)N3)CC2)ncc1Cl)c1ccc(Cl)cc1Cl [Example 1.129],< 100
18,C[C@@H](Nc1nc(N2CCC(NC(=O)[C@H]3C[C@H](F)CN3)CC2)ncc1Cl)c1ccc(Cl)cc1Cl [Example 1.137],100 to 1000
19,C[C@@H](Nc1nc(N2CCN(C(=O)[C@H]3CCCN3C(N)=O)CC2)ncc1Cl)c1ccc(Cl)cc1Cl [Example 1.138],100 to 1000
20,C[C@@H](Nc1nc(N2CCN(C(=O)[C@H]3CCCN3Cc3nnn[nH]3)CC2)ncc1Cl)c1ccc(Cl)cc1Cl [Example 1.139],< 100
21,C[C@@H](Nc1nc(N2CCN(C(=O)[C@H]3C[C@@H](F)CN3)CC2)ncc1Cl)c1ccc(Cl)cc1Cl [Example 1.140],< 100
22,C[C@@H](Nc1nc(N2CCC(N(CCC(=O)O)C(=O)[C@H]3CCCN3)CC2)ncc1Cl)c1ccc(Cl)cc1Cl [Example 1.141],> 1000
23,C[C@@H](Nc1nc(N2CCN(C(=O)[C@H]3C[C@H](F)CN3)CC2)ncc1Cl)c1ccc(Cl)cc1Cl [Example 1.142],< 100
24,C[C@@H](Nc1nc(N2CCN(C(=O)[C@H]3CCN(C)C3)CC2)ncc1Cl)c1ccc(Cl)cc1Cl [Example 1.143],< 100
25,C[C@@H](Nc1nc(N2CCN(C(=O)[C@@H]3CCC(=O)N3)CC2)ncc1Cl)c1ccc(Cl)cc1Cl [Example 1.144],100 to 1000
26,C[C@@H](Nc1nc(N2CCN(C(=O)[C@@H]3CNCCO3)CC2)ncc1Cl)c1ccc(Cl)cc1Cl [Example 1.145],< 100
27,C[C@@H](Nc1nc(N2CCN(C(=O)[C@H]3CC(F)(F)CN3)CC2)ncc1Cl)c1ccc(Cl)cc1Cl [Example 1.146],100 to 1000
28,C[C@@H](Nc1nc(N2CCN(C(=O)C3CNC(=O)C3)CC2)ncc1Cl)c1ccc(Cl)cc1Cl (some centres unmarked) [Example 1.147],< 100
29,C[C@@H](Nc1nc(N2CCN(C(=O)[C@H]3CCN(C)C3)CC2)ncc1C(C)(C)O)c1ccc(Cl)cc1Cl [Example 1.154],100 to 1000

# The remaining lines, values ahead:
row,IC50 [nM],SMILES
1,< 100,C[C@@H](Nc1nc(N2CCN(C(=O)[C@H]3CCC(=O)N3)CC2)nc(N)c1Cl)c1ccc(Cl)cc1Cl [Example 1.084]
2,< 100,C[C@@H](Nc1nc(N2CCN(C(=O)[C@H]3CCC(=O)N3)CC2)ncc1F)c1ccc(F)cc1Cl [Example 1.085]
3,< 100,C[C@@H](Nc1nc(N2CCN(C(=O)[C@H]3CCC(=O)N3)CC2)ncc1F)c1ccc(Cl)cc1F [Example 1.086]
4,< 100,C[C@H]1CC[C@H](C(=O)N[C@H]2CCN(c3ncc(Cl)c(N[C@H](C)c4ccc(Cl)cc4Cl)n3)C[C@@H]2F)N1 [Example 1.087]
5,< 100,C[C@@H](Nc1nc(N2CC[C@H](NC(=O)[C@H]3CCCN3)[C@H](O)C2)ncc1F)c1ccc(Cl)cc1Cl [Example 1.090]
6,< 100,C[C@@H](Nc1nc(N2CCN(C(=O)[C@H]3CCCN3)CC2)ncc1N)c1ccc(Cl)cc1Cl [Example 1.094]
7,< 100,C[C@@H](Nc1nc(N2CCN(C(=O)[C@H]3CCC(=O)N3)CC2)ncc1N)c1ccc(Cl)cc1Cl [Example 1.095]
8,< 100,COc1cnc(N2CCN(C(=O)[C@H]3CN(C)C(=O)N3)CC2)nc1N[C@H](C)c1ccc(Cl)cc1Cl [Example 1.096]
9,< 100,Cc1nc(N2CCN(C(=O)[C@H]3CN(C)C(=O)N3)CC2)nc(N[C@H](C)c2ccc(Cl)cc2Cl)c1Cl [Example 1.097]
10,< 100,COCc1cnc(N2CCN(C(=O)[C@H]3CCCN3)CC2)nc1N[C@H](C)c1ccc(Cl)cc1Cl [Example 1.101]
11,< 100,COCc1cnc(N2CCN(C(=O)[C@H]3CCC(=O)N3)CC2)nc1N[C@H](C)c1ccc(Cl)cc1Cl [Example 1.102]
12,< 100,C[C@@H](Nc1nc(N2CCN(C(=O)[C@H]3CN(C)C(=O)N3)CC2)ncc1F)c1ccc(Cl)cc1Cl [Example 1.103]
13,< 100,C[C@@H]1CN(c2ncc(Cl)c(N[C@H](C)c3ccc(Cl)cc3Cl)n2)CCN1C(=O)[C@H]1CN(C)C(=O)N1 [Example 1.104]
14,< 100,Cc1nc(N2CCN(C(=O)[C@H]3CCC(=O)N3)[C@H](C)C2)nc(N[C@H](C)c2ccc(Cl)cc2Cl)c1Cl [Example 1.105]
15,< 100,C[C@@H](Nc1nc(N2CC[C@H](NC(=O)[C@H]3CCCN3)[C@@H](O)C2)ncc1F)c1ccc(Cl)cc1Cl [Example 1.107]
16,< 100,C[C@@H](Nc1nc(N2CCN(C(=O)[C@H]3CCCN3)CC2)ncc1OCC(F)(F)F)c1ccc(Cl)cc1Cl [Example 1.108]
17,< 100,C[C@@H](Nc1nc(N2CCN(C(=O)[C@H]3CCC(=O)N3)[C@H](CO)C2)ncc1Cl)c1ccc(Cl)cc1Cl [Example 1.109]
18,< 100,C[C@@H](Nc1nc(N2CCN(C(=O)[C@H]3CCC(=O)N3)[C@@H](CO)C2)ncc1Cl)c1ccc(Cl)cc1Cl [Example 1.111]
19,< 100,C[C@@H]1CN(c2ncc(Cl)c(N[C@H](C)c3ccc(Cl)cc3Cl)n2)CCN1C(=O)[C@H]1CCC(=O)N1 [Example 1.112]
20,< 100,C[C@@H](Nc1nc(N2CCN(C(=O)[C@H]3CCCN3)CC2)ncc1C1CC1)c1ccc(Cl)cc1Cl [Example 1.114]
21,< 100,C[C@@H](Nc1ccnc(N2CCN(C(=O)[C@H]3CCCN3)CC2)n1)c1ccc(Cl)cc1Cl [Example 1.115]
22,< 100,C[C@@H](Nc1ccnc(N2CCN(C(=O)[C@H]3CCC(=O)N3)CC2)n1)c1ccc(Cl)cc1Cl [Example 1.116]
23,< 100,C[C@@H](Nc1nc(N2CCN(C(=O)[C@H]3CCC(=O)N3)CC2)ncc1F)c1ccc(Cl)cc1Cl [Example 1.117]
24,< 100,C[C@@H](Nc1nc(N2CC[C@@H](NC(=O)[C@H]3CCCN3)[C@H](O)C2)ncc1OC(F)F)c1ccc(Cl)cc1Cl [Example 1.118]
25,< 100,C[C@H]1CC[C@H](C(=O)N[C@H]2CCN(c3ncc(OC(F)F)c(N[C@H](C)c4ccc(Cl)cc4Cl)n3)C[C@@H]2O)N1 [Example 1.119]
26,< 100,C[C@@H](Nc1nc(N2CC[C@H](NC(=O)[C@H]3CCCN3)[C@H](O)C2)ncc1OC(F)F)c1ccc(Cl)cc1Cl [Example 1.120]
27,< 100,COc1cnc(N2CCN(C(=O)C34CC(CN3)C4)CC2)nc1N[C@H](C)c1ccc(Cl)cc1Cl [Example 1.121]
